A short description of this data set: Oral delivery of fluorescein with 10 kDa polymer: bioavailability and recovery in blood, urine and feces. It counts as in vivo, rat. Conditions: ingestion. As for the experimental part:
Eighteen rats have been selected and have been given either no polymer (rats 1, 2, 10, 11), or the polymer (10 kDa) at a dose of 5 mg/kg (rats 13-15), 50 mg/kg (rats 4-6, 12, 16-18) or 300 mg/kg (rats 3 and 7-9). Fluorescein has been either covalently coupled to the polymer (rats 4-9 and 13-18; labelled as PO or IV in the figures), or physically (non-covalently) adhered to the polymer (rats 3 and 12); labelled as PO* or IV* in the figures.
The polymer has been administered either per ingestion (PO or PO*) or by injection (IV or IV*). Blood concentration of the polymer-fluorescein (FIG. 1), or of the (potentially-free) fluorescein (FIG. 2) has been measured in the blood, in the feces (FIG. 4) and in urine (FIG. 3).

Molecules are shown by their SMILES.

With `O=C1OC2(c3ccc(O)cc3Oc3cc(O)ccc32)c2ccccc21` [free fluorescein, fluorescein], for the setting “rats (FIG. 4)”, the “ingested fluorescein found in the feces” value is reported as above 99%. In addition, the ingested fluorescein internalized entry (rats, without the polymer) is on record as “less than 1%”.
